Data reported in patent US8440790B2, “Crystal structure of the CCZ-LZ domain of NEMO” (Les Laboratoires Servier, priority 2008, dated 2013).

Columns and labels:
[1] = system: NF-κB pathway; experiment: Functional complementation in NEMO-deficient mouse embryo fibroblasts (Igκ-luciferase reporter, TNFα stimulation); type: cell-based; details: NEMO-deficient MEF transiently transfected with NEMO variant and Igκ-luciferase reporter; TNFα stimulation for 24 hours; compared with wild-type NEMO
Text: The capabilities of the wild-type NEMO protein and of the above-defined mutant NEMO proteins in restoring activation of the NF-κB pathway in response to the proinflammatory cytokine TNF-α are compared and illustrated in FIG. 5. For that purpose, NEMO-deficient mouse embryo fibroblasts (MEF) are transiently co-transfected on the one hand with the plasmid coding for the Igκ-luciferase reporter gene and on the other hand with the plasmids coding for the various proteins, and then stimulated with TNFα for 24 hours. The wild-type protein completely restores the NF-κB pathway whereas TNFα-dependent activation of the NF-κB pathway is affected by the mutant proteins in differing degrees.
NEMO-deficient mouse embryo fibroblasts (MEF) are cultured in cell culture jars and transiently transfected with a mixture containing: 0.2 μg of a plasmid pEF1 coding for β-galactosidase, 0.5 μg of a plasmid containing the Igk-luciferase reporter gene and 2 μg of plasmids expressing the different variants of NEMO. Twenty-four hours after transfection, the cells are activated with TNFα (20 ng/ml) for 24 hours. The cells are then recovered and then lysed in 110 μl of a buffer of 25 mM Tris/Phosphate pH 7.8, 8 mM MgCl2, 1% Triton, 1 mM dithiothreitol, 15% to glycerol to which a cocktail of proteases is added (Roche). […] The activity of the reporter gene is measured.

[2] = Gel filtration of the wild-type CC2-LZ protein and the mutant F312A; type: physicochemical; details: CC2-LZ domain of NEMO; compared with wild-type CC2-LZ protein
Method: The gel filtration experiments are carried out at 4° C. on a Superdex 75 HR 10/30 column (Amersham Biosciences). The column is equilibrated in a buffer of Tris/HCl 50 mM pH7.5, NaCl 200 mM, DTE 0.2 mM at 4° C. with a flow rate of 0.5 ml/min. A sample of constant volume (200 μl), at a concentration of 0.3 μM, is injected onto the column at a rate of 0.5 ml/min. The proteins are diluted in the equilibration buffer of the column and allowed to stand at 4° C. for 2 hours before injection in order to allow them to equilibrate. In order to detect elution of the proteins, an RF-10 AXL spectrofluorimeter (Shimadzu) is connected on-line to the AKTA apparatus. The intrinsic fluorescence is recorded, measuring the emission of fluorescence of the tyrosine residues at 310 nm after excitation at 280 nm.

Substance	inhibition of TNFα-dependent activation of the NF-κB pathway [1] [%]	effect of the mutation on the stability of the dimer (elution profile on gel filtration) [2]
A323P: human NEMO protein with point mutation Ala323Pro (position 316 in the mouse), cause of incontinentia pigmenti	95	–
F312A: human NEMO / CC2-LZ protein with point mutation Phe312Ala (position 305 in the mouse), within the ubiquitin-binding site	78	does not affect the stability of the dimer
